We go through 4 molecules from US20250057813A1, “APOPTOSIS RELATED PROTEIN IN THE TGF-BETA SIGNALING PATHWAY (ARTS) MIMETIC COMPOUNDS, COMPOSITIONS, METHODS AND USES THEREOF IN INDUCTION OF APOPTOSIS” (Carmel-Haifa University Economic Corporation Ltd., priority 2022, published 2025).

Each structure is given as a SMILES string. Peptide text beside a SMILES is read from it. * marks the point of attachment. Cbz = O=C(OCc1ccccc1)*

Experiment [1] concerns A375 human melanoma cells. Nature of the experiment: SDS PAGE and Western blot analysis of A375 cells. The experiment is classed as cell-based. Here is the method:
(§1) The cells were lysed in WCE (whole-cell extract) buffer [25 mM Hepes, pH 7.7, 0.3M NaCl, 1.5 mM MgCl2, 0.2 mM EDTA, 0.1% Triton X-100, 100[μg/ml PMSF and protease inhibitor cocktail (Roche, 1:100 dilution)]. 100 μg of total cell protein, measured with the Bio-Rad Protein Assay kit, were separated by SDS-PAGE (12%) followed by transfer for 2 h on to a nitrocellulose membrane. The membrane was blocked with 5% (w/v) non-fat dried skimmed milk powder in PBS supplemented with 0.05% Tween20 (PBS-T) for 1 hour at room temperature (R.T). Membrane was then probed with primary antibody at 4° C. overnight. Next, the membrane was incubated with the appropriate HRP-conjugated secondary antibody, for 1 hour at R.T. and washed 15 min ×3 with PBS-T. WesternBright ECL (Advansta) was added to the membrane for 2 min and analyzed using ImageQuant LAS-4000 analyzer (GE Healthcare Life Sciences) & “ImageQuant LAS-4000” software (GE Healthcare Life Sciences). Densitometry analysis was performed using ImageQuant total lab 7 (GE Healthcare Life Sciences), image analysis software.
(§2) Cells were lysed in whole-cell extract buffer [25 mM HEPES, pH 7.7, […], 1.5 mM MgCl2, 0.2 mM EDTA, 0.1% Triton X-100, 100 μg/ml phenylmethylsulfonyl fluoride (PMSF) and protease inhibitor cocktail (Roche, 1:100 dilution)] and placed on ice for 30 min (vortexing once after 15 min). After 30 minutes, the samples were centrifuged at 13,000×g for 10 minutes at 4° C. The supernatants containing total protein were measured for protein concentration using Bio-Rad Protein Assay Dye Reagent Concentrate Kit. 40 to […] was separated by sodium dodecyl sulfate-polyacrylamide gel electrophoresis (SDS-PAGE) (12% or 7.5%), followed by transfer to a nitrocellulose membrane. The membranes were blocked with 5% (w/v) non-fat dried skimmed milk powder in PBS supplemented with 0.05% Tween-20 (PBS-T) for 1 h at RT. Next, primary antibodies were added at 4° C. overnight or for 2 h at room temperature. Membranes were then incubated with secondary antibody for 1 h at RT and washed three times for 15 min each with PBS-T. Western Bright ECL (Advansta) was added to the membrane for 30-60 s and analyzed using Image Quant LAS-4000 (GE Healthcare Life Sciences) and Image Quant LAS-4000 software (GE Healthcare Life Sciences).

Experiment [2] deals with CCRF-CEM (acute lymphoblastic leukemia) cell line. Nature of the experiment: Western blot analysis of CCRF-CEM. The experiment is classed as cell-based. More on the design: cleaved PARP and cleaved Caspase 3: dose or concentration left out as unconfirmed. Here is the method:
as §1

The test system of a further experiment is HL-60 leukemia cell line. The experiment can be described thus: Western blot analysis of HL-60. It counts as cell-based. The settings on record: 1 μM ABT199, 24 hrs. As to the method: as §1
The subject of experiment [3] is Sept4/ARTS KO MEFs, shARTS HeLa, A-375, WT MEFs, WT HeLa. The experiment can be described thus: Western blot of cell lines with different amounts of endogenous ARTS. The experiment is classed as cell-based. The settings on record: ABT-199 alone, 24 hrs. Here is the method: as §1
For another experiment, the system named is p53-ARTS complex. The experiment can be described thus: BiFC assay in WT MEFs (VN-p53 and VC-ARTS). It counts as cell-based. Conditions: 200 μM Etoposide. The text has this: The split-Venus BiFC system was used to evaluate close proximity indicating possible direct binding between pairs of proteins. The proteins were fused either to the N-terminal part of the VenusYFP (yellow fluorescence protein) (VN) or the C-terminal domain (VC). All Venus fragments were fused to the C-terminal sequences of these proteins. The Jun and bFos pair was used as a positive control (p.c.), and the Jun and bFosdeltaZTP pair was used as a negative control (n.c.). A vector encoding dsRed was used as a transfection efficiency marker.

In another experiment the test system is sept4/ARTS KO MEFs. The experiment can be described thus: Western blot of Sept4/ARTS KO MEFs treated with proteasome inhibitor. The experiment is classed as cell-based, mouse. Conditions: MG-132, 20 μM for 6 hours. As to the method: as §2
In experiment [4] the test system is WT MEFs and Sept4/ARTS KO MEFs cells. Nature of the experiment: Western blot of WT MEFs and Sept4/ARTS KO MEFs. The experiment is classed as cell-based, mouse. The settings on record: 20 or 40 μM, 24 hours. Here is the method: as §2

Regarding `CC1(C)CCC(CN2CCN(c3ccc(C(=O)NS(=O)(=O)c4ccc(NCC5CCOCC5)c([N+](=O)[O-])c4)c(Oc4cnc5[nH]ccc5c4)c3)CC2)=C(c2ccc(Cl)cc2)C1` [ABT-199, 4-[4-[[2-(4-Chlorophenyl)-4,4-dimethyl-1-cyclohexen-1-yl]methyl]-1-piperazinyl]-N-[[3-nitro-4-[[(tetrahydro-2H-pyran-4-yl)methyl]amino]phenyl]sulfonyl]-2-(1H-pyrrolo[2,3-b]pyridin-5-yloxy)benzamide, reference compound], the ARTS levels result in experiment [1] (5 μM ABT-199, 24 hrs) is “upregulated”; in experiment [3] it was “upregulated”. Further, the “apoptotic markers, cleaved PARP and cleaved Caspase 3” value in experiment [1] (5 μM ABT-199, 24 hrs) was “upregulated”. In addition, in experiment [1] (10 μM ABT-199, 24 hrs), the BCL-2 levels result is listed as “upregulated”. In addition, the Bcl-2 levels entry in experiment [1] (ABT-199 alone, 2, 6 and 24 hrs) is on record as “upregulated”. In addition, the “cleaved PARP and cleaved Caspase 3” value is on record as “upregulated” in experiment [2] (ABT-199, 24 hrs) and “upregulated” with HL-60 leukemia cell line. For the same molecule, in experiment [2] (ABT-199 alone, 24 hrs), the “cleaved Caspase 3” value is given as “increased”.

Turning to `COc1cc([C@@H]2c3cc4c(cc3[C@@H](O[C@@H]3O[C@@H]5CO[C@@H](C)O[C@H]5[C@H](O)[C@H]3O)[C@H]3COC(=O)[C@H]23)OCO4)cc(OC)c1O` [Etoposide], the “formation of p53-ARTS complex” value in the experiment on p53-ARTS complex is listed as “promotes”.

With `CC(C)C[C@@H](C=O)NC(=O)[C@H](CC(C)C)NC(=O)[C@H](CC(C)C)NC(=O)OCc1ccccc1` [MG-132] (Cbz-Leu-Leu-Leu-aldehyde), in the experiment with sept4/ARTS KO MEFs, the p53 protein levels entry is recorded as “accumulation”.

As to `COC(=O)c1[nH]c2ccc(Cl)cc2c1NC(=O)CN1CCN(Cc2ccccc2)CC1` [A4, 3-[2-(4-Benzyl-piperazin-1-yl)-acetylamino]-5-chloro-1H-indole-2-carboxylic acid methyl ester], in experiment [4], the XIAP levels result was “downregulates” and the p53 levels entry is listed as “upregulate”.
